Laboratory results published in publication PMC10174255, “Drug repurposing approach against chikungunya virus: an in vitro and in silico study” (Frontiers in Cellular and Infection Microbiology, 2023).
“And” between values parts separate entries of the source, which are not always exact repeats. Equal entries are not always repeated.

Experiments:
Vero CCL-81 cells = experiment: MTT cytotoxicity assay; conditions: for The maximum nontoxic concentration used for primary screening of drugs against CHIKV: Vero CCL-81, ≥90% cell viability
CHIKV [1] = experiment: Antiviral assay (pre-, co-, posttreatment) with FFU readout; conditions: for anti chikungunya activity: Vero CCL-81, any treatment condition; for IC50 / anti-CHIKV activity in primary screening: FFU; for IC50: Vero CCL-81; for anti-CHIKV activity in primary screening: highest nontoxic concentration
MTT cytotoxicity assay = conditions: African green monkey
CHIKV [2] = experiment: Viral RNA copy number by quantitative RT-PCR
CHIKV [3] = experiment: Immunofluorescence assay (percent infected cells); conditions: posttreatment, IFA, compared to VC
CHIKV [4] = experiment: Time-of-addition assay (extra- and intracellular virus, FFU); conditions: for reduction in extracellular virus titer compared to VC / reduction in intracellular virus titer compared to VC: 50 µM
CHIKV [5] = experiment: Western blot of viral capsid (C) protein; assay type: cell-based, Chikungunya virus; conditions: posttreatment, maximal non-toxic concentration, normalized to β-actin
Protocol: To investigate the expression of viral proteins, a western blotting assay was performed. […] The cell cultures were subjected to different types of treatment with various concentrations of the appropriate drugs. Cells were lysed using the RIPA buffer and 2X laemmli buffer at 1:1 ratio. The cell culture lysates from uninfected, infected without treatment and infected treated cells were subjected to an electrophoretic run on 10% discontinuous SDS polyacrylamide gels followed by electroblotting onto nitrocellulose membranes. The membranes were then blocked for 30 minutes using phosphate-buffered saline (PBS) containing 5% bovine serum albumin. […] This monoclonal antibody is known to react with the capsid protein of CHIKV and was characterized and purified as described earlier ([Damle et al., 2016]). The membranes were thoroughly rinsed with tris-buffered saline with 0.1% Tween 20 (TBST) after overnight incubation (5 washes totaling a 20-minute soak with rocking), and then they were incubated with the appropriate horseradish peroxidase (HRP) conjugated anti-mouse IgG antibody for two hours while rocking. For developing the blot, ECL substrate (Thermo Scientific) was used in the dark. The image of the blot was captured using the Gel Documentation system (BioRad™, USA), and analysis was done. To quantify the protein signals (density) of the viral protein and housekeeping protein in each lane, ImageJ software was used. After calculating the signal values for each band, the background signals were subtracted from the signal. The relative level of viral protein was normalized to beta-actin (monoclonal antibody 15G5A11/E2, catalog no:MA1-140, Invitrogen, USA). Signal densities were determined using ImageJ software and were plotted using GraphPad Prism software version 7.

[6] = posttreatment, 6.25 µM, VC 8.870

Compound: Nc1cccc2c1CN(C1CCC(=O)NC1=O)C2=O (centres unmarked) [Lenalidomide]
- The maximum nontoxic concentration used for primary screening of drugs against CHIKV (Vero CCL-81 cells): 200 µM

Compound: Oc1ccc(/C=C/c2cc(O)cc(O)c2)cc1 [Resveratrol]
- anti chikungunya activity (CHIKV [1]): exhibit anti chikungunya activity
- Selectivity Index (SI) (CHIKV [1]; posttreatment): 23.74
- mean log10 viral titer/ml (CHIKV [1]; [6]): 8.261 log10 FFU/ml
- mean log10 viral titer/ml (CHIKV [1]; posttreatment, 12.5 µM, VC 8.870): 7.486 log10 FFU/ml
- IC50 (CHIKV [1]; posttreatment): 1.72 µM
- anti-CHIKV activity in primary screening (CHIKV [1]; posttreatment): effective
- CC50 (MTT cytotoxicity assay): 40.9 ± 4.57 µM
- The maximum nontoxic concentration used for primary screening of drugs against CHIKV (Vero CCL-81 cells): 12.5 µM
- effect on viral RNA copy number/titre (CHIKV [2]; posttreatment): No reduction
- reduction in percentage of infected cells (CHIKV [3]): prominently observed
- effect on extracellular titer of virus (CHIKV [4]; 6.25 µM, added at 3 and 6 h): mild but significant reduction
- effect on intra- and extracellular virus titer (CHIKV [4]; 12.5 µM, added at 0, 3 and 6 h): significant decrease

Compound: CC(C)(C)C#Cc1cc(N(C(=O)[C@H]2CC[C@H](C)CC2)[C@H]2CC[C@H](O)CC2)c(C(=O)O)s1 [Lomibuvir]
- anti chikungunya activity (CHIKV [1]): exhibit anti chikungunya activity
- Selectivity Index (SI) (CHIKV [1]; posttreatment): 19.83
- mean log10 viral titer/ml (CHIKV [1]; [6]): 7.655 log10 FFU/ml
- IC50 (CHIKV [1]; posttreatment): 1.59 µM
- anti-CHIKV activity in primary screening (CHIKV [1]; posttreatment): effective
- CC50 (MTT cytotoxicity assay): 31.5 ± 9.63 µM
- The maximum nontoxic concentration used for primary screening of drugs against CHIKV (Vero CCL-81 cells): 6.25 µM
- effect on viral RNA copy number/titre (CHIKV [2]; posttreatment): no change observed
- effect on virus titer (CHIKV [4]; 3.125 µM, added at 3 and 6 h): small but significant reduction
- effect on intra- and extracellular virus titer (CHIKV [4]; 6.25 µM, added at 0, 3 and 6 h): significantly reduced

Compound: Cc1nc2c(O)cccc2c(=O)[nH]1 [NU-1025]
- The maximum nontoxic concentration used for primary screening of drugs against CHIKV (Vero CCL-81 cells): 100 µM

Compound: CO[C@H]1C[C@@H]2CC[C@@H](C)[C@@](O)(O2)C(=O)C(=O)N2CCCC[C@H]2C(=O)O[C@H]([C@H](C)C[C@@H]2CC[C@@H](OC(=O)C(C)(CO)CO)[C@H](OC)C2)CC(=O)[C@H](C)/C=C(\C)[C@@H](O)[C@@H](OC)C(=O)[C@H](C)C[C@H](C)/C=C/C=C/C=C/1C [Temsirolimus]
- anti chikungunya activity (CHIKV [1]): exhibit anti chikungunya activity
- reduction of CHIKV titre compared to VC (CHIKV [1]; discussion summary): 4-5 log10
- Selectivity Index (SI) (CHIKV [1]; posttreatment): 68.41
- mean log10 viral titer/ml (CHIKV [1]; posttreatment, 25 µM, VC 8.870): 7.903 log10 FFU/ml
- mean log10 viral titer/ml (CHIKV [1]; posttreatment, 50 µM, VC 8.870): 3.678 log10 FFU/ml
- IC50 (CHIKV [1]; posttreatment): 6.04 µM
- anti-CHIKV activity in primary screening (CHIKV [1]; posttreatment): effective
- Selectivity Index (SI) (CHIKV [1]; pretreatment): 85.1 and 85.11
- mean log10 viral titer/ml (CHIKV [1]; pretreatment, 25 µM, VC 8.665): 7.279 log10 FFU/ml
- IC50 (CHIKV [1]; pretreatment): 4.86 µM
- anti-CHIKV activity in primary screening (CHIKV [1]; pretreatment): effective
- CC50 (MTT cytotoxicity assay): 413 ± 378 µM
- The maximum nontoxic concentration used for primary screening of drugs against CHIKV (Vero CCL-81 cells): 50 µM
- decrease in RNA copy number of CHIKV compared to VC (CHIKV [2]; posttreatment, 50 µM): 2.487 log10
- decrease in viral RNA copy number compared to VC (CHIKV [2]; pretreatment, 50 µM): 0.809 log10
- reduction in percentage of infected cells (CHIKV [3]): prominently observed
- viral antigen (C protein) expression (CHIKV [5]): significant reduction
- reduction in extracellular virus titer compared to VC (CHIKV [4]; added at 0 h and 3 h): ~ 4 log10
- reduction in intracellular virus titer compared to VC (CHIKV [4]; added at 0 h and 3 h): ~ 3 log10
- reduction in extracellular virus titer compared to VC (CHIKV [4]; added at 6 h): ~ 3 log10
- reduction in intracellular virus titer compared to VC (CHIKV [4]; added at 6 h): ~ 2 log10
- effectiveness at time points of addition (CHIKV [4]; added 0, 3 and 6 h post infection): effective at all the three time points

Compound: CC[C@H]1CN2CCc3cc(OC)c(OC)cc3[C@@H]2C[C@@H]1C[C@H]1NCCc2cc(OC)c(OC)cc21 [Emetine]
- anti chikungunya activity (CHIKV [1]): exhibit anti chikungunya activity
- mean log10 viral titer/ml (CHIKV [1]; posttreatment, 50 µM, VC 8.870): 7.802 log10 FFU/ml
- mean log10 viral titer/ml (CHIKV [1]; posttreatment, 100 µM, VC 8.870): 7.550 log10 FFU/ml
- mean log10 viral titer/ml (CHIKV [1]; posttreatment, 200 µM, VC 8.870): 7.306 log10 FFU/ml
- IC50 (CHIKV [1]; posttreatment): 4.24 µM
- anti-CHIKV activity in primary screening (CHIKV [1]; posttreatment): effective
- CC50 (MTT cytotoxicity assay): > 200 µM
- The maximum nontoxic concentration used for primary screening of drugs against CHIKV (Vero CCL-81 cells): 200 µM
- effect on viral RNA copy number/titre (CHIKV [2]; posttreatment): No significant reduction
- effect on intra- and extracellular virus titre (CHIKV [4]; 200 µM, added at 6 h): significant reduction
- effect on intra- and extracellular virus titer (CHIKV [4]; 50-200 µM, added at 0 and 3 h): significantly reduced

Compound: C[C@@]12CCC[C@H]1[C@@H]1CC[C@H]3C[C@@H](O)CC[C@]3(C)[C@H]1CC2 [5-α-3-β-androstanol]
- The maximum nontoxic concentration used for primary screening of drugs against CHIKV (Vero CCL-81 cells): 12.5 µM
- CC50 (Vero CCL-81 cells; read-out: CC50 value ± SE, Vero CCL-81, MTT, 0.78-200 µM): 23.5 ± 0.856 µM
